Measurements as given in patent US11951085B2, “Methods of treating injuries or conditions related to CNS edema” (BIOGEN CHESAPEAKE LLC, priority 2015, dated 2024).

Columns and labels:
Format in all cases: in vivo, human
[1] = test system: MMP-9; experiment: Large Hemispheric Infarction study: MMP-9 values in blood samples; settings: blood samples at 24 hours and at 72 hours, averaged
Method: (§1) In order to determine the efficacy of SUR1-TRPM4 channel inhibitors for reducing or treating neurological conditions associated with cell swelling and CNS or cerebral edema, a randomized double blind placebo controlled clinical study was conducted. […] Within the “per protocol” group, 77 patients who were confirmed centrally to have brain lesions from 82 cc to 300 cc. Forty one of subjects were administered the test drug and 36 subjects were administered the placebo. The administration of the test drug was as follows: a bolus of 0.13 mg of the SUR1-TRPM4 channel inhibitor was administered over approximately 2 minutes followed by a continuous infusion of 0.16 mg/hr for 6 hours, and then a continuous infusion of 0.11 mg/hr for 66 hours, for a total dosing period of 72 hours. The total daily dose of Study Drug on Day 1, Day 2 and Day 3 was 3.12 mg, 2.67 mg, and 2.67 mg, respectively.
Additionally, MMP-9 values based in blood samples were taken at 24 hours and at 72 hours for the study participants and then averaged. MMP-9 levels are known to rise after stroke and are believed to represent blood brain barrier dysfunction. The MMP-9 average values are shown in Table 8 below, and graphed in FIG. 7.

[2] = test system: subjects with Large Hemispheric Infarction (brain lesions of 82 cc to 300 cc); experiment: Randomized double blind placebo controlled study in Large Hemispheric Infarction: clinical outcomes (mortality, mRS, Barthel Index, EQ-5D); design: median mRS / EQ-5D Median Difference: scale not given here; settings: for Difference in 90 Day Score of mRS 0-4: Test Drug Group versus Placebo Group
Method: as §1
The incidence of mortality in the individuals was recorded at both 30 and 90 days following treatment. The Reduction in Mortality as a result of administration of the SUR1-TRPM4 channel inhibitor is shown in Table 2 below, and graphed in FIG. 1.
Additional mortality data was collected as it related to drug and placebo treatment with and without a Decompressive Craniectomy (DC). Essentially, the incidence of mortality was recorded for study participants that passed away following a DC prior to the end of the study period. The incidence of mortality when a DC occurred compared to no DC is shown in Table 3 below, and graphed in FIG. 2.
The subjects in this study were also tested using the modified Rankin Scale (mRS). One way to assess outcome in large strokes, such as those studied, is to determine the percentage of patients in each group who have a mRS of 0-4 at 90 days after stroke. The results of the 90 day mRS study is shown in Table 4 below, and graphed in FIG. 3.
The Barthel Index is another functional outcome that can be used to assess outcome of stroke patients. The subjects of the study were also scored using the Barthel index both initially and again at about 90 days. The degree of improvement in the Barthel index scores are shown in Table 5 below and graphed in FIG. 4.
Mortality can be multifactorial and may depend on factors such as preexisting comorbidities and risk factors. […] Specifically, cause of death was adjudicated by three adjudicators blinded to study drug group. Imaging and clinical data were used to determine, among other outcomes, cause of death. […] Consistent with our proposed mechanism of action, mortality attributable to edema was the driver behind reductions in overall mortality.
The magnitude of difference between placebo and treatment arms on the mRS as an ordinal scale is frequently measured using the Mann-Whitney test and a common odds ratio (OR) may be derived using the proportional odds methodology to explore effect size. In accordance with this, a common OR of 1.2 represents a clinically meaningful difference. The OR for effect size in patients ≤70 in the per-protocol population was 2.49, which represents a substantial clinical effect.
The Barthel Index (BI) is a measure of activities of daily living. It has been widely used and accepted in stroke trials and is one of the more prevalent scales used in acute stroke. In one example, a minimum clinically important change that is beyond measurement error is about 20 points on the 100-point scale, which was used as a benchmark in this study. The median delta or differences seen in the ≤70 per-protocol population at 90 days, 6 months, and 12 months between drug and placebo were 35, 27.5, and 45, respectively, all exceeding the accepted threshold. A common interpretation of the BI considers a score of ≤40 to be a clearly bad outcome, whereas a score of ≥60 is a clearly good outcome.
The EuroQol-5D (EQ-5D) is a generic instrument used to assess quality of life in a variety of conditions, including stroke. […]

[3] = test system: subjects with TBI having lesional blood (contusion); experiment: Randomized double blind placebo controlled study in Traumatic Brain Injury (MRI edema, GOSE)
Method: The administration of the test drug was as follows: a bolus of 0.13 mg of the SUR1-TRPM4 channel inhibitor was administered over approximately 2 minutes followed by a continuous infusion of 0.16 mg/hr for 6 hours, and then a continuous infusion of 0.11 mg/hr for 66 hours, for a total dosing period of 72 hours. The total daily dose of Study Drug on Day 1, Day 2 and Day 3 was 3.12 mg, 2.67 mg, and 2.67 mg, respectively. All subjects were assessed by MRI scans at baseline and 72 hours.
The 14 subjects (7 drug and 7 placebo) identified as having evidence of lesional blood (i.e., blood associated with a contusion) at baseline and having MRI scans at both baseline and 72 hours were assessed for edema using MIM software version 5.6. Blinded readers ascertained x, y, z measurements of the total apparent contusion using T2 images, unless missing, in which case, DTI images were used. Only contusions that could be reliably measured (measuring at least about 1 cc) were measured. Readers also ascertained the volume measurements of hemorrhages in a similar manner using SWI images. Linear measurements were captured in centimeters (cm) and all volumes in cubic centimeters (cc). Volumes were calculated using the ABC/2 standard. The volume of apparent edema was calculated as the difference between the overall apparent contusion volume and the volume of the hemorrhage. For analysis, if there were multiple lesions, the volumes of all lesions meeting the threshold were combined.

[4] = Large Hemispheric Infarction study: blood glucose monitoring; settings: one patient, receiving 10 wt % dextrose solution; infusion rate reduced by 30% and glucose stabilized
Method: as §1
a) During the Double Blind Placebo Controlled Study, there was a lab confirmed blood glucose level that dropped to 51 mg/dL which was recorded for one of the patients who was receiving a 10 wt % dextrose solution.

[5] = Full per-protocol population, 6 Months
[6] = Full per-protocol population, 12 Months
[7] = PP ≤ 9 hr (drug in 9 hours or less), N 33 (14/19)
[8] = patients ≤70, per-protocol population
[9] = ≤70 per-protocol population, 6 Months
[10] = ≤70 per-protocol population, 12 Months
[11] = ≤70 per-protocol population, Day 90

## COc1ccc(Cl)cc1C(=O)NCCc1ccc(S(=O)(=O)NC(=O)NC2CCCCC2)cc1 [glyburide]
[1]
  MMP-9 Average: 193.18 ng/mL
[2]; 41 individuals, per protocol
  % Death 30 days: 14.6%
  % Death 90 days: 17.1%
[2]; [5]
  EQ-5D Median Difference: 0.34
  Survival OR: 2.63
  mRS OR: 1.88
[2]; [6]
  EQ-5D Median Difference: 0.14
  Survival OR: 2.54
  mRS OR: 1.64
[2]; Full per-protocol population, 90 Days, drug vs placebo
  EQ-5D Median Difference: 0.30
[2]; Full per-protocol population, Day 90
  Survival OR: 2.74
[2]; Full per-protocol population, Day 90, ordinal
  mRS OR: 1.91
[2]; PP population, N 77 (36/41), logistic regression
  Mortality OR: 2.75
[2]; PP population, N 77 (36/41), ordinal logistic regression
  mRS 0-6 OR: 1.91
[2]; [7]
  Mortality OR: 2.96
  mRS 0-6 OR: 2.31
[2]
  Difference in 90 Day Score of mRS 0-4: 14.6%
[2]; listed as Test Drug
  Difference in 90 Day Score of mRS 0-4: +14.6%
[2]; by extrapolation, mRS shift OR of 1
  "zero effect" lesion size: about 100 cc
[2]; full and ≤70 per-protocol populations, all time points
  EQ-5D median difference between drug and placebo: greater than 0.12
[2]; number of deaths among 13 individuals receiving decompressive craniectomy
  Mortality with DC: 2
[2]; number of deaths among 28 individuals with no decompressive craniectomy
  Mortality without DC: 5
[2]; number of deaths among 41 individuals, per protocol
  Mortality 90 days (includes 30 day values): 7
[2]; number of deaths among 41 individuals, per protocol, 30 days following treatment
  Mortality 30 days: 6
[2]; [8]
  effect size at the mRS 0-3 dichotomization: 14%
  effect size at the mRS 0-4 dichotomization: 22%
[2]; per-protocol group (1/41), placebo 22.22% (8/36), p=0.01
  Adjudicated mortality due to edema: 2.44%
[2]; percentage of patients with mRS 0-4 at 90 days after stroke
  90 Day Score of mRS 0-4: 61.4%
[2]; treated group, median of 5 in the placebo
  median mRS: 4
[2]; [9]
  EQ-5D Median Difference: 0.29
  Survival OR: 3.47
  mRS OR: 2.33
[2]; [10]
  EQ-5D Median Difference: 0.30
  Survival OR: 4.00
  mRS OR: 2.24
[2]; ≤70 per-protocol population, 90 Days
  EQ-5D Median Difference: 0.29
[2]; [11]
  Survival OR: 3.88
  mRS OR: 2.49
[3]; 7 drug subjects with lesional blood, MRI volume, placebo 10.28-fold
  evolution (growth) of edema from baseline to 72 hours: 2.14 fold
[3]; at 180 days, placebo 6.17
  mean Glasgow Coma Scale Extended score (GOSE): 6
[3]; in vivo
  drug-related effects in non-lesioned subjects or areas of the brain without a lesion: No drug-related effects were detected
[4]
  lab confirmed blood glucose level: 51 mg/dL
